Key:
Test in all cases: Kinase assay, binding constants (Kd), kinase-tagged T7 phage, qPCR
FGFR1 = FGFR1 (Homo sapiens (Human), UniProt P11362)
Experimental: (§1) Kinase-tagged T7 phage strains were prepared in an E. coli host derived from the BL21 strain. E. coli were grown to log-phase and infected with T7 phage and incubated with shaking at 32° C. until lysis. The lysates were centrifuged and filtered to remove cell debris. Streptavidin-coated magnetic beads were treated with biotinylated small molecule ligands for 30 minutes at room temperature to generate affinity resins for kinase assays. The liganded beads were blocked with excess biotin and washed with blocking buffer SeaBlock (Pierce), […], 1 mM DTT to remove unbound ligand and to reduce non-specific binding.
(§2) Test compounds were prepared as 111λ stocks in 10000 DMS0. Kds were determined using an 11-point 3-fold compound dilution series with three DMSO control points. […] The compounds were then diluted directly into the assays such that the final concentration of DMSO was 0.9%. All reactions performed in polypropylene 384-well plate. Each was a final volume of 0.02 ml. […] The beads were then re-suspended in elution buffer (1×PBS, 0.05% Tween […] non-biotinylated affinity ligand) and incubated at room temperature with shaking for 30 minutes. The kinase concentration in the eluates was measured by qPCR.
(§3) Binding constants were calculated with a standard dose-response curve using the Hill equation: […]
(§4) The Hill Slope was set to −1. Curves were fitted using a non-linear least square fit with the Levenberg-Marquardt algorithm.

FGFR2 = FGFR2 (Homo sapiens (Human), UniProt P21802)
Sequence of FGFR2 (P21802 22-821): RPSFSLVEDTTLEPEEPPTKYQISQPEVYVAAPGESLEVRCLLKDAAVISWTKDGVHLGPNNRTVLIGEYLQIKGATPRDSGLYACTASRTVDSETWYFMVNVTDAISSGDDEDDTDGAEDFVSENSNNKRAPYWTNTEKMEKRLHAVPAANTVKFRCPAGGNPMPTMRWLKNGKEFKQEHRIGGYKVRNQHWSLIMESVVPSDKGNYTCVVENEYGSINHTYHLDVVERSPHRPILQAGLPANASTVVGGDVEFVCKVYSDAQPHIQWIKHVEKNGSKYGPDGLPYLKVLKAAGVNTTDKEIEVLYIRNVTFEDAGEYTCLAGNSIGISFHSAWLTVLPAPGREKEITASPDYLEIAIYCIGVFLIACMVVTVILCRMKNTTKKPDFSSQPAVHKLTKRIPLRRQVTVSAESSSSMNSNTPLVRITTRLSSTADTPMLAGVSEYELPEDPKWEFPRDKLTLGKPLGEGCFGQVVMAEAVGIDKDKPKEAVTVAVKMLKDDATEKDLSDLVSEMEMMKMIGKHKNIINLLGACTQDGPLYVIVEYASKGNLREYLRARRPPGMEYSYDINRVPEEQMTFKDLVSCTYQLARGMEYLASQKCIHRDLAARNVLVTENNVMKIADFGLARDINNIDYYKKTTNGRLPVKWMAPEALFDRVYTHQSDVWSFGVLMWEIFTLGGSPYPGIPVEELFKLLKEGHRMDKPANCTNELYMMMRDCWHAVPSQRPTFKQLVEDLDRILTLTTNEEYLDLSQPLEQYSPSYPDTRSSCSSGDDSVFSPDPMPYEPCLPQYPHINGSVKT
Experimental: as §1, §2, §3, §4

FGFR3 = FGFR3 (Homo sapiens (Human), UniProt P22607)
Sequence of FGFR3 (P22607 23-806): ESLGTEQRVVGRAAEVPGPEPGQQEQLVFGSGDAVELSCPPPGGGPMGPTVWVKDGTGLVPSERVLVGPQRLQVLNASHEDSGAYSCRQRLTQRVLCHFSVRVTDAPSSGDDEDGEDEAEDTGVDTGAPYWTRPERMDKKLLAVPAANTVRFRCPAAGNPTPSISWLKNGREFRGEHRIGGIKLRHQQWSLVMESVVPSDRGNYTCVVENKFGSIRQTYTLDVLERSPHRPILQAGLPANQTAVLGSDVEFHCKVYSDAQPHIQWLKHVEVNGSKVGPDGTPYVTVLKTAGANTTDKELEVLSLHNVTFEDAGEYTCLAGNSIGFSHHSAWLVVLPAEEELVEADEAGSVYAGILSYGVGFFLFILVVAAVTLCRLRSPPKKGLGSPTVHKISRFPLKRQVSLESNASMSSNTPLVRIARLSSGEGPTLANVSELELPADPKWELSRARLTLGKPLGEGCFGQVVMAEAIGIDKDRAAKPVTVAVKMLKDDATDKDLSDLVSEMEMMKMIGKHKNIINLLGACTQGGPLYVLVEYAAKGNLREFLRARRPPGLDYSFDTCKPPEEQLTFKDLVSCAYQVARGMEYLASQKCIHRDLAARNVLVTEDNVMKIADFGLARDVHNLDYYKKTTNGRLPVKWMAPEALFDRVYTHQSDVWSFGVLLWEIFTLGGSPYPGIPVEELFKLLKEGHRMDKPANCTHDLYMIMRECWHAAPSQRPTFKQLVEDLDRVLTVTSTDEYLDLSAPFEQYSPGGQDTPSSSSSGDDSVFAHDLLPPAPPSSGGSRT
Experimental: as §1, §2, §3, §4

FGFR3 (V555M) = FGFR3 (V555M) (Homo sapiens (Human), UniProt P22607, V555M); settings: V555M mutant
Sequence of FGFR3 (V555M) (P22607 23-806 V555M): as the sequence (P22607 23-806) above, with V533M counted along it
Experimental: as §1, §2, §3, §4

FGFR4 = FGFR4 (Homo sapiens (Human), UniProt P22455)
Sequence of FGFR4 (P22455 22-802): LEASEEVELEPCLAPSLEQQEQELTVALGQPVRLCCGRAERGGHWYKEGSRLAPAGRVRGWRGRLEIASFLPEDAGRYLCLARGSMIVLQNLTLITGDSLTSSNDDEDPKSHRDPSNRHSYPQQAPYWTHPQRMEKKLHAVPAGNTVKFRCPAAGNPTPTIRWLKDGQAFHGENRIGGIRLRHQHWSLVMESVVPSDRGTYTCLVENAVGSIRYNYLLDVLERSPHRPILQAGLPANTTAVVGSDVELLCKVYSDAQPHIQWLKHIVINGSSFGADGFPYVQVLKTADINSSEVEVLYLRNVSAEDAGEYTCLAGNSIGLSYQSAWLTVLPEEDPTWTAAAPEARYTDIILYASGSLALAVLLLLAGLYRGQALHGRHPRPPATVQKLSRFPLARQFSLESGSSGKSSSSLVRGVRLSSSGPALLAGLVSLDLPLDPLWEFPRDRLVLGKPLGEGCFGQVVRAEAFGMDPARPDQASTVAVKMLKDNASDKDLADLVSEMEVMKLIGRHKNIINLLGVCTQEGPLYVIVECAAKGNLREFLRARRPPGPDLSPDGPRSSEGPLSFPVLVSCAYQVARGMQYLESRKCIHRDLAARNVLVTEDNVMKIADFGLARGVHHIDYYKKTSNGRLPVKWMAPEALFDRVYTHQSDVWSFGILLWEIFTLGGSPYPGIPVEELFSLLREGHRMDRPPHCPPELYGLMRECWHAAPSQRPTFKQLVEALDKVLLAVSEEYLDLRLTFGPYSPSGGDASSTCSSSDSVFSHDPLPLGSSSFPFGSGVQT
Experimental: as §1, §2, §3, §4

Sequence of FGFR1 (P11362 22-822): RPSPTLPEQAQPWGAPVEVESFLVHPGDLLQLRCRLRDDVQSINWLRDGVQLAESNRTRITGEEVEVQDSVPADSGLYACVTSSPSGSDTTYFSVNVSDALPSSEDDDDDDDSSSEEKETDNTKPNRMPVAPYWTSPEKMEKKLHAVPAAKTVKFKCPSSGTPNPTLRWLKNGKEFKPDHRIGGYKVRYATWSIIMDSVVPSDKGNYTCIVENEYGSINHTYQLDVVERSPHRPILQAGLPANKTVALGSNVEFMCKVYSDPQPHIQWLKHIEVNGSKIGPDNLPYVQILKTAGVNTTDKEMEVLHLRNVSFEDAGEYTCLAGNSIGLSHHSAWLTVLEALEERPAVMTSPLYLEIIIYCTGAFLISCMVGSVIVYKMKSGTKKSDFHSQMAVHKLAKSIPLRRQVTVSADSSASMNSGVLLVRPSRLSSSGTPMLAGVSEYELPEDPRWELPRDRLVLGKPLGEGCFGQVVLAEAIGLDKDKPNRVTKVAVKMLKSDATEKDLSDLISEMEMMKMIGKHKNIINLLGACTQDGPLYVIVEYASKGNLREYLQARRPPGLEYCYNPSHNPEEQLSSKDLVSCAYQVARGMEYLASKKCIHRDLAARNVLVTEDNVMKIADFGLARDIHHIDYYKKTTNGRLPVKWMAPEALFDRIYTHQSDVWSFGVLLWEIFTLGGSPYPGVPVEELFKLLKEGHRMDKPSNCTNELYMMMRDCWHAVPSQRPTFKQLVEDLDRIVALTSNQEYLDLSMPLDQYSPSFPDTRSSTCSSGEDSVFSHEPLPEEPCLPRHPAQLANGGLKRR

| Structure (SMILES) | Kd (FGFR1) | Kd (FGFR2) | Kd (FGFR3) | Kd (FGFR3 (V555M)) | Kd (FGFR4) |
| --- | --- | --- | --- | --- | --- |
| COc1cc2[nH]nc(-c3ccc(N4CC5(C4)CN(S(C)(=O)=O)C5)nc3)c2cc1O[C@H](C)c1c(C)cnnc1C [Example 194, 5-[(1R)-1-(3,5-dimethylpyridazin-4-yl)ethoxy]-6-methoxy-3-[6-(2-methylsulfonyl-2,6-diazaspiro[3.3]heptan-6-yl)-3-pyridyl]-1H-indazole] | 1 to 20 nM | 1 to 20 nM | 1 to 20 nM | 1 to 20 nM | 1 to 20 nM |
| Cc1cnnc(C)c1[C@H](C)Oc1ccc2[nH]nc(-c3cnc(N4CC5(C4)CN(S(C)(=O)=O)C5)nc3)c2c1 [Example 155, 5-[(1S)-1-(3,5-dimethylpyridazin-4-yl)ethoxy]-3-[2-(2-methylsulfonyl-2,6-diazaspiro[3.3]heptan-6-yl)pyrimidin-5-yl]-1H-indazole] | > 300 nM | > 300 nM | > 300 nM | > 300 nM | 100 to 300 nM |
| COc1cc(-c2n[nH]c3ccc(O[C@H](C)c4c(C)cnnc4C)cc23)cnc1N1CCCC1 [Example 305, (R)-5-(1-(3,5-dimethylpyridazin-4-yl)ethoxy)-3-(5-methoxy-6-(pyrrolidin-1-yl)pyridin-3-yl)-1H-indazole] | > 300 nM | > 300 nM | > 300 nM | 100 to 300 nM | 20 to 100 nM |
| C[C@@H](Oc1ccc2[nH]nc(-c3ccc(N4CCC[C@@H]4CO)nc3)c2c1)c1c(Cl)cncc1Cl [Example 236, ((R)-1-(5-(5-((R)-1-(3,5-dichloropyridin-4-yl)ethoxy)-1H-indazol-3-yl)pyridin-2-yl)pyrrolidin-2-yl)methanol] | 20 to 100 nM | 1 to 20 nM | 1 to 20 nM | 1 to 20 nM | 1 to 20 nM |
| C[C@@H](Oc1ccc2[nH]nc(-c3cnc(N4CC5(CCNC5)C4)nc3)c2c1)c1c(Cl)cncc1Cl [Example 158, 3-[2-(2,7-diazaspiro[3.4]octan-2-yl)pyrimidin-5-yl]-5-[(1R)-1-(3,5-dichloro-4-pyridyl)ethoxy]-1H-indazole] | 20 to 100 nM | 20 to 100 nM | 1 to 20 nM | 1 to 20 nM | 1 to 20 nM |
| C[C@@H](Oc1cc2c(-c3cnc(N4CC5(C4)CN(S(C)(=O)=O)C5)c(F)c3)n[nH]c2cc1Cl)c1c(Cl)cnnc1Cl [Example 264, (R)-6-chloro-5-(1-(3,5-dichloropyridazin-4-yl)ethoxy)-3-(5-fluoro-6-(6-(methylsulfonyl)-2,6-diazaspiro[3.3]heptan-2-yl)pyridin-3-yl)-1H-indazole] | 1 to 20 nM | 1 to 20 nM | 1 to 20 nM | 1 to 20 nM | 1 to 20 nM |
| C[C@@H](Oc1cc2c(-c3cnc(N4CC5(C4)CN(S(C)(=O)=O)C5)c(F)c3)n[nH]c2cc1F)c1c(Cl)cncc1Cl [Example 256, 5-[(1R)-1-(3,5-dichloro-4-pyridyl)ethoxy]-6-fluoro-3-[5-fluoro-6-(2-methylsulfonyl-2,6-diazaspiro[3.3]heptan-6-yl)-3-pyridyl]-1H-indazole] | 1 to 20 nM | 1 to 20 nM | 1 to 20 nM | 1 to 20 nM | 1 to 20 nM |
| CCN1C2CC1CN(c1ccc(-c3n[nH]c4cc(OC)c(O[C@H](C)c5c(C)cnnc5C)cc34)cn1)C2 [Example 213, 3-(5-(5-((R)-1-(3,5-dimethylpyridazin-4-yl)ethoxy)-6-methoxy-1H-indazol-3-yl)pyridin-2-yl)-6-ethyl-3,6-diazabicyclo[3.1.1]heptane] | 1 to 20 nM | – | 1 to 20 nM | 1 to 20 nM | 1 to 20 nM |

Results, then the compound that gave them:

| Kd (FGFR1) | Kd (FGFR2) | Kd (FGFR3) | Kd (FGFR3 (V555M)) | Kd (FGFR4) | Structure (SMILES) |
| --- | --- | --- | --- | --- | --- |
| 20 to 100 nM | 20 to 100 nM | 1 to 20 nM | > 300 nM | 1 to 20 nM | C[C@@H](Oc1cc2c(-c3cnc(N4CC5(C4)CN(S(C)(=O)=O)C5)c(C#N)c3)n[nH]c2cc1Cl)c1c(Cl)cncc1Cl [Example 359, (R)-5-(6-chloro-5-(1-(3,5-dichloropyridin-4-yl)ethoxy)-1H-indazol-3-yl)-2-(6-(methylsulfonyl)-2,6-diazaspiro[3.3]heptan-2-yl)nicotinonitrile] |
| > 300 nM | > 300 nM | 100 to 300 nM | 100 to 300 nM | 20 to 100 nM | C[C@@H](Oc1ccc2[nH]nc(-c3cnc(N4CC(O)C4)c(C#N)c3)c2c1)c1c(Cl)cnc(F)c1Cl [Example 287, (R)-5-(5-(1-(3,5-dichloro-2-fluoropyridin-4-yl)ethoxy)-1H-indazol-3-yl)-2-(3-hydroxyazetidin-1-yl)nicotinonitrile] |
| 1 to 20 nM | 1 to 20 nM | 1 to 20 nM | 1 to 20 nM | 1 to 20 nM | C[C@@H](Oc1ccc2[nH]nc(-c3ccc(N4CC(C#N)C4)nc3)c2c1)c1c(Cl)cncc1Cl [Example 253, (R)-1-(5-(5-(1-(3,5-dichloropyridin-4-yl)ethoxy)-1H-indazol-3-yl)pyridin-2-yl)azetidine-3-carbonitrile] |
| 1 to 20 nM | 20 to 100 nM | 1 to 20 nM | 1 to 20 nM | 1 to 20 nM | C[C@@H](Oc1cc2c(-c3cnc(N4CC5(C4)CN(S(C)(=O)=O)C5)c(C#N)c3)n[nH]c2cc1F)c1c(Cl)cncc1Cl [Example 355, (R)-5-(5-(1-(3,5-dichloropyridin-4-yl)ethoxy)-6-fluoro-1H-indazol-3-yl)-2-(6-(methylsulfonyl)-2,6-diazaspiro[3.3]heptan-2-yl)nicotinonitrile] |
| 100 to 300 nM | 20 to 100 nM | 20 to 100 nM | 1 to 20 nM | 1 to 20 nM | Cc1cnnc(C)c1[C@@H](C)Oc1ccc2[nH]nc(-c3cnc(N4CC[C@H](O)C4)c(C#N)c3)c2c1 [Example 306, 5-(5-((R)-1-(3,5-dimethylpyridazin-4-yl)ethoxy)-1H-indazol-3-yl)-2-((S)-3-hydroxypyrrolidin-1-yl)nicotinonitrile] |
| 20 to 100 nM | 20 to 100 nM | 1 to 20 nM | 1 to 20 nM | 1 to 20 nM | C[C@@H](Oc1ccc2[nH]nc(-c3cnc(N4CCC(O)CC4)c(C#N)c3)c2c1)c1c(Cl)cncc1Cl [Example 298, 5-[5-[(1R)-1-(3,5-dichloro-4-pyridyl)ethoxy]-1H-indazol-3-yl]-2-(4-hydroxy-1-piperidyl)pyridine-3-carbonitrile] |
| 1 to 20 nM | 1 to 20 nM | 1 to 20 nM | 1 to 20 nM | 1 to 20 nM | COc1cc2[nH]nc(-c3cnc(N4CC[C@H](O)C4)c(C#N)c3)c2cc1O[C@H](C)c1c(Cl)cncc1Cl [Example 327, 5-[5-[(1R)-1-(3,5-dichloro-4-pyridyl)ethoxy]-6-methoxy-1H-indazol-3-yl]-2-[(3S)-3-hydroxypyrrolidin-1-yl]pyridine-3-carbonitrile] |
| 100 to 300 nM | – | 20 to 100 nM | 20 to 100 nM | 1 to 20 nM | Cc1cnnc(C)c1[C@@H](C)Oc1ccc2[nH]nc(-c3cnc(N4CCCC4)c(C#N)c3)c2c1 [Example 173, 5-[5-[(1R)-1-(3,5-dimethylpyridazin-4-yl)ethoxy]-1H-indazol-3-yl]-2-pyrrolidin-1-yl-pyridine-3-carbonitrile] |
| – | 100 to 300 nM | 20 to 100 nM | 20 to 100 nM | – | C[C@@H](Oc1ccc2[nH]nc(-c3ccc(N4CC5(CCOC5)C4)nc3)c2c1)c1c(Cl)cnnc1Cl [Example 223, (R)-2-(5-(5-(1-(3,5-dichloropyridazin-4-yl)ethoxy)-1H-indazol-3-yl)pyridin-2-yl)-6-oxa-2-azaspiro[3.4]octane] |
